# Experimental data from ChEMBL document CHEMBL5365448, “Development of Long-Acting Dipeptidyl Peptidase-4 Inhibitors: Structural Evolution and Long-Acting Determinants” (J Med Chem, 2023).
# How the values were obtained:
# [1] = Oral Bioavailability in rat; assay type: ADME, organism-based; settings: in vivo
# [2] = Half life in rat; assay type: ADME; settings: in vivo
# [3] = Half life in dog at 0.5 mg/kg, iv measured after 0.083 hrs by liquid chromatography tandem mass spectrometry analysis; assay type: ADME, organism-based, Canis lupus familiaris; settings: in vivo
# [4] = Half life in rat at 1 mg/kg, iv measured after 0.083 hrs by liquid chromatography tandem mass spectrometry analysis; assay type: ADME, organism-based; settings: in vivo
# [5] = Oral bioavailability in rat at 2 mg/kg measured at 0.25 to 168 hrs by liquid chromatography tandem mass spectrometry analysis; assay type: ADME, organism-based; settings: in vivo, time 0.25-168 hrs
# [6] = Clearance in rat at 1 mg/kg, iv measured after 0.083 hrs by liquid chromatography tandem mass spectrometry analysis; assay type: ADME, organism-based; settings: in vivo
# [7] = Half life in mouse at 1 mg/kg, iv measured after 0.083 hrs by liquid chromatography tandem mass spectrometry analysis; assay type: ADME, organism-based; settings: in vivo
# [8] = Half life in monkey at 0.5 mg/kg, iv measured after 0.083 hrs by liquid chromatography tandem mass spectrometry analysis; assay type: ADME, organism-based, Macaca mulatta; settings: rhesus monkey, in vivo
# [9] = Cmax in iv dosed rat; assay type: ADME, organism-based; set-up: route iv; settings: in vivo
# [10] = Tmax in iv dosed rat; assay type: ADME, organism-based; settings: in vivo
# [11] = AUC in iv dosed rat; assay type: ADME, organism-based; set-up: route iv; settings: in vivo
# [12] = Half life in iv dosed rat; assay type: ADME, organism-based; settings: in vivo
# [13] = Bioavilability in iv dosed rat; assay type: ADME, organism-based; settings: in vivo
# [14] = Half life in Sprague-Dawley rat at 5 mg/kg, po measured at 0.083 to […] by Liquid chromatography coupled with tandem mass spectrometry analysis; assay type: ADME, organism-based; settings: in vivo, time 0.083-0.25 hrs
# [15] = Oral bioavailability in Sprague-Dawley rat at 5 mg/kg measured at 0.083 to […] by Liquid chromatography coupled with tandem mass spectrometry analysis; assay type: ADME, organism-based; settings: in vivo, time 0.083-0.25 hrs
# [16] = Cmax in rat at 10 mg/kg, po measured after 24 hrs by LC/MS/MS analysis; assay type: ADME, organism-based; set-up: dose 10 mg/kg, time 24 hrs, route po; settings: in vivo
# [17] = Cmax in dog at 3 mg/kg, po measured after 24 hrs by LC/MS/MS analysis; assay type: ADME, organism-based, Canis lupus familiaris; set-up: time 24 hrs, dose 3 mg/kg, route po; settings: in vivo
# [18] = Cmax in Cynomolgus monkey at 10 mg/kg, po measured after 24 hrs by LC/MS/MS analysis; assay type: ADME, organism-based, Macaca fascicularis; set-up: dose 10 mg/kg, time 24 hrs, route po; settings: in vivo
# [19] = Tmax in rat at 10 mg/kg, po measured after 24 hrs by LC/MS/MS analysis; assay type: ADME, organism-based; settings: in vivo
# [20] = Tmax in dog at 3 mg/kg, po measured after 24 hrs by LC/MS/MS analysis; assay type: ADME, organism-based, Canis lupus familiaris; settings: in vivo
# [21] = Tmax in Cynomolgus monkey at 10 mg/kg, po measured after 24 hrs by LC/MS/MS analysis; assay type: ADME, organism-based, Macaca fascicularis; settings: in vivo
# [22] = AUC in rat at 10 mg/kg, po measured after 24 hrs by LC/MS/MS analysis; assay type: ADME, organism-based; set-up: dose 10 mg/kg, time 24 hrs, route po; settings: in vivo
# [23] = AUC in rat at 1 mg/kg, iv measured after 24 hrs by LC/MS/MS analysis; assay type: ADME, organism-based; set-up: dose 1 mg/kg, time 24 hrs, route iv; settings: in vivo
# [24] = AUC in dog at 3 mg/kg, po measured after 24 hrs by LC/MS/MS analysis; assay type: ADME, organism-based, Canis lupus familiaris; set-up: dose 3 mg/kg, time 24 hrs, route po; settings: in vivo
# [25] = AUC in Cynomolgus monkey at 10 mg/kg, po measured after 24 hrs by LC/MS/MS analysis; assay type: ADME, organism-based, Macaca fascicularis; set-up: dose 10 mg/kg, time 24 hrs, route po; settings: in vivo
# [26] = Half life in rat at 10 mg/kg, po measured after 24 hrs by LC/MS/MS analysis; assay type: ADME, organism-based; settings: in vivo
# [27] = Half life in rat at 1 mg/kg, iv measured after 24 hrs by LC/MS/MS analysis; assay type: ADME, organism-based; settings: in vivo
# [28] = Half life in dog at 3 mg/kg, po measured after 24 hrs by LC/MS/MS analysis; assay type: ADME, organism-based, Canis lupus familiaris; settings: in vivo
# [29] = Half life in Cynomolgus monkey at 10 mg/kg, po measured after 24 hrs by LC/MS/MS analysis; assay type: ADME, organism-based, Macaca fascicularis; settings: in vivo
# [30] = Clearance in rat at 1 mg/kg, iv measured after 24 hrs by LC/MS/MS analysis; assay type: ADME, organism-based; settings: in vivo
# [31] = Clearance in dog at 3 mg/kg, po measured after 24 hrs by LC/MS/MS analysis; assay type: ADME, organism-based, Canis lupus familiaris; settings: in vivo
# [32] = Clearance in Cynomolgus monkey at 10 mg/kg, po measured after 24 hrs by LC/MS/MS analysis; assay type: ADME, organism-based, Macaca fascicularis; settings: in vivo
# [33] = Volume of distribution in rat at 1 mg/kg, iv measured after 24 hrs by LC/MS/MS analysis; assay type: ADME, organism-based; settings: in vivo
# [34] = Volume of distribution in dog at 3 mg/kg, po measured after 24 hrs by LC/MS/MS analysis; assay type: ADME, organism-based, Canis lupus familiaris; settings: in vivo
# [35] = Volume of distribution in Cynomolgus monkey at 10 mg/kg, po measured after 24 hrs by LC/MS/MS analysis; assay type: ADME, organism-based, Macaca fascicularis; settings: in vivo
# [36] = Oral bioavailability in rat at 10 mg/kg measured after 24 hrs by LC/MS/MS analysis; assay type: ADME, organism-based; settings: in vivo
# [37] = Oral bioavailability in rat at 1 mg/kg measured after 24 hrs by LC/MS/MS analysis; assay type: ADME, organism-based; settings: in vivo
# [38] = Oral bioavailability in dog at 3 mg/kg measured after 24 hrs by LC/MS/MS analysis; assay type: ADME, organism-based, Canis lupus familiaris; settings: in vivo
# [39] = Oral bioavailability in Cynomolgus monkey at 10 mg/kg measured after 24 hrs by LC/MS/MS analysis; assay type: ADME, organism-based, Macaca fascicularis; settings: in vivo
smiles,measurement,setting,value
CS(=O)(=O)Nc1cccc(NC(=O)CN2CCN(C(=O)C[C@H](N)Cc3ccccc3F)[C@H](Cc3ccccc3)C2)c1,bioavailability,[1],< 1%
N[C@@H](CC(=O)N1CCSC1)Cc1cc(F)c(F)cc1F,half-life,[2],1.1 h
same,bioavailability,[1],3%
CC#CCn1c(N2CCC[C@@H](N)C2)nc2c1c(=O)n(Cc1nc3cc(F)ccc3s1)c(=O)n2C,half-life,[2],7.3 h
N[C@H]1C[C@@H](N2CC3=C(C2)CS(=O)(=O)C3)CO[C@@H]1c1cc(F)ccc1F,half-life,[3],52.8 h
same,half-life,[4],28 h
same,bioavailability,[5],91%
same,clearance,[6],1.14 L/h/kg
same,half-life,[7],44.4 h
same,half-life,[8],61.1 h
N[C@H]1C[C@@H](N2Cc3nn4c(C(F)(F)F)cc(C(F)(F)F)nc4c3C2)CO[C@@H]1c1cc(F)ccc1F,half-life,[2],25.4 h
same,bioavailability,[1],71%
same,Cmax,[9],0.119 µg/mL
same,Tmax,[10],5.3 h
same,AUC,[11],3.7 µg·h/mL
same,half-life,[12],25.4 h
same,bioavailability,[13],71%
N#Cc1ccc(F)cc1Cn1c(N2CCC[C@@H](N)C2)nc2cc(-c3cccnc3)sc2c1=O,half-life,[14],16.4 h
same,bioavailability,[15],94%
Cn1c(=O)cc(N2CCC[C@@H](N)C2)n(Cc2ccccc2C#N)c1=O [ALOGLIPTIN],Cmax,[16],0.393 µg/mL
same,Cmax,[17],0.447 µg/mL
same,Cmax,[18],3.21 µg/mL
same,Tmax,[19],2.3 h
same,Tmax,[20],0.4 h
same,Tmax,[21],1 h
same,AUC at 24 h,[22],1.2 µg·h/mL
same,AUC at 24 h,[23],0.26 µg·h/mL
same,AUC at 24 h,[24],1.6 µg·h/mL
same,AUC at 24 h,[25],16.6 µg·h/mL
same,half-life,[26],2.8 h
same,half-life,[27],1.4 h
same,half-life,[28],3 h
same,half-life,[29],5.6 h
same,clearance,[30],2.94 L/h/kg
same,CL/F,[31],1.38 L/h/kg
same,CL/F,[32],0.528 L/h/kg
same,Vd,[33],3.5 L/kg
same,Vd,[34],3.5 L/kg
same,Vd,[35],2.6 L/kg
same,bioavailability,[36],45%
same,bioavailability,[37],86%
same,bioavailability,[38],68%
same,bioavailability,[39],87%
